Measurements as given in article PMC10584170, “Machine learning-based phenotypic imaging to characterise the targetable biology of Plasmodium falciparum male gametocytes for the development of transmission-blocking antimalarials” (PLOS Pathogens, 2023).

Key:
[1] = system: P. falciparum female gametocytes; test: P. falciparum Dual Gamete Formation Assay (PfDGFA), female readout (Pfs25-positive female gametes); type: cell-based, Plasmodium falciparum NF54; settings: for Average inhibition female (%): average of replicates; for % inhibition female (individual replicates) R1: replicate R1; for % inhibition female (individual replicates) R3: replicate R3; for % inhibition female (individual replicates) R4: replicate R4
Summary of the method: (§1)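 Mature NF54 gametocytes (day 14) were incubated with compound for 24 h at 37°C under 1% O2/3% CO2, then triggered with xanthurenic acid ookinete medium plus Cy3-anti-Pfs25. Exflagellation was imaged by brightfield; after a further 24 h at 28°C, Pfs25-positive female gametes were imaged by fluorescence and counted by automated image analysis.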

[2] = system: P. falciparum male gametocytes; test: P. falciparum Dual Gamete Formation Assay (PfDGFA), male readout (exflagellation); type: cell-based, Plasmodium falciparum NF54; settings: for Average inhibition male (%): average of replicates; for % inhibition male (individual replicates) R1: replicate R1; for % inhibition male (individual replicates) R4: replicate R4; for Activity: hit = >50% inhibition in male or female readout in at least 3 replicates, 0 = no class assigned; for % inhibition male (individual replicates) R3: replicate R3
Summary of the method: as §1

[3] = 2µM, 24h preincubation with gametocytes prior to induction of gametogenesis
[4] = 2µM, 24h preincubation, hits selected on >50% inhibition in the female readout across replicates
[5] = 2µM, 24h preincubation, hits selected on >50% inhibition in the male readout across replicates
[6] = PfDGFA at 2µM, 24h preincubation
[7] = PfDGFA at 2µM, 24h preincubation with gametocytes prior to induction of gametogenesis

Compound | Average inhibition female (%) [1, 3] | % inhibition female (individual replicates) R1 [1, 3] | % inhibition female (individual replicates) R3 [1, 3] | % inhibition female (individual replicates) R4 [1, 3] | HitlevelF [1, 4] | Average inhibition male (%) [2, 3] | % inhibition male (individual replicates) R1 [2, 3] | % inhibition male (individual replicates) R4 [2, 3] | HitlevelM [2, 5] | Activity [2, 6] | % inhibition male (individual replicates) R3 [2, 3] | % inhibition female (individual replicates) R1 [1, 7] | % inhibition female (individual replicates) R3 [1, 7] | % inhibition female (individual replicates) R4 [1, 7] | Average inhibition female (%) [1, 6] | % inhibition male (individual replicates) R1 [2, 7] | % inhibition male (individual replicates) R4 [2, 7] | Average inhibition male (%) [2, 6] | % inhibition male (individual replicates) R3 [2, 7] | other results
Cc1ccc(-n2c(C)nc3c(Nc4ccc(-c5ccncc5)cc4)ncnc32)c(C)c1 [TCMDC-136289] | 6.8% | 7.7% | 15.7% | 3.5% | 0 | 51.6% | 92.5% | -28.8% | 2 | 0 | – | – | – | – | – | – | – | – | – | –
CN(C)CCCNCc1cn(S(=O)(=O)c2ccccc2Cl)c2ccccc12.Cl [TCMDC-136302] | 50.5% | 52.5% | 48.5% | 54.4% | – | 39.6% | 57.4% | 62.3% | – | – | 42.5% | – | – | – | – | – | – | – | – | HitlevelF ([1]; 2µM, 24h preincubation, number of replicates with >50% inhibition in the female readout): 2; HitlevelM ([2]; 2µM, 24h preincubation, number of replicates with >50% inhibition in the male readout): 2
COc1ccc(CNC(=O)c2cnc3cc(-c4c(C)noc4C)ccc3c2Nc2ccccc2C(C)(C)C)cc1.Cl [TCMDC-136367] | – | – | – | – | – | – | – | – | – | – | – | -1.1% | -0.6% | 13.4% | 2.7% | -0.3% | -17.2% | -9.5% | – | –
COc1cc(Br)c(S(=O)(=O)n2cc(CN3CCC(N)CC3)c3cc(Cl)ccc32)cc1OC.O=C(O)C(F)(F)F [TCMDC-136384] | 13.1% | 17.7% | 22.3% | -2.1% | 0 | 17.6% | 5.7% | 29.6% | 0 | 0 | -10.3% | – | – | – | – | – | – | – | – | –
COc1cc(C(=O)N2CCN(C(C)C)CC2)ccc1CN(C)CCCCN1CCN(c2cccc(Cl)c2Cl)CC1.Cl [TCMDC-136506] | 13.2% | 17.9% | 17.6% | 12.7% | 0 | 24.1% | 21.0% | 30.9% | 1 | 0 | -5.5% | – | – | – | – | – | – | – | – | –
CN(C)Cc1c(O)ccc2[nH]c(-c3cccc(F)c3)nc12 [TCMDC-136535] | – | – | – | – | – | – | – | – | – | – | – | 14.3% | -20.0% | -2.1% | -3.2% | -6.0% | 8.9% | -3.8% | -26.3% | –
C[C@@H](CNc1ccnc(Nc2ccc3[nH]c(=O)[nH]c3c2)n1)c1ccccc1 [TCMDC-136803] | – | – | – | – | – | – | – | – | – | – | – | 0.6% | -4.3% | 9.5% | 0.458% | -12.9% | -10.1% | -9.4% | – | –
Cc1cc(N2CCCN(CC3CCCCC3)CC2)nc(Nc2ccc(Br)cc2)n1 [TCMDC-137133] | 14.4% | 13.7% | 2.2% | 35.3% | 0 | -4.7% | -4.0% | -6.5% | 0 | 0 | -2.0% | – | – | – | – | – | – | – | – | –
CCOc1cc(Cc2cnc(N)nc2N)cc(OCC)c1O [TCMDC-137181] | – | – | – | – | – | – | – | – | – | – | – | -0.02% | 1.9% | -15.6% | -3.9% | 23.6% | 11.2% | 22.7% | 21.9% | –
CNC(=O)C(NC(=O)c1ccccc1C(=O)OC)c1ccccc1 (centres unmarked) [TCMDC-137226] | – | – | – | – | – | – | – | – | – | – | – | 18.3% | -7.8% | -6.5% | 2.2% | 12.9% | -18.5% | -3.7% | -28.2% | –
COc1cc(Cc2cnc(N)nc2N)cc(OCCCCC2SC(=O)NC2=O)c1Br (centres unmarked) [TCMDC-137240] | – | – | – | – | – | – | – | – | – | – | – | 12.9% | 1.7% | -5.0% | 2.6% | 22.0% | -19.8% | 3.4% | 3.4% | –
Cc1nc2nc(N)nc(N)c2c(C)c1Cc1ccccc1Br.Cl [TCMDC-137242] | – | – | – | – | – | – | – | – | – | – | – | 10.1% | -11.3% | 2.1% | -2.4% | 34.5% | -12.5% | 16.6% | 1.0% | –
Cc1c(Cc2ccccc2Br)cnc2nc(N)nc(N)c12.Cl [TCMDC-137244] | – | – | – | – | – | – | – | – | – | – | – | 1.3% | -18.4% | -3.4% | -6.0% | 13.7% | 3.9% | 10.5% | 18.7% | –
CCC(CC)n1c(C)cc2c3c(N)nc(N)nc3ccc21 [TCMDC-137283] | 4.2% | -6.1% | 8.3% | 19.7% | 0 | 25.7% | 19.3% | 21.2% | 0 | 0 | 21.9% | – | – | – | – | – | – | – | – | –
CCCc1cc(Cc2cnc(N)nc2N)cc(CCC)c1OCCCCC(=O)O [TCMDC-137293] | 8.1% | 3.0% | -4.5% | 42.6% | 0 | -0.757% | 18.6% | -35.8% | 0 | 0 | 1.6% | – | – | – | – | – | – | – | – | –
